One assay deals with HDF cells. The experiment in a line: HDF cell area after exposure to peptides. The class given is cell-based, human. The following applies: HDF on glass without external FN coating, fixed after 1 week; compared with control peptides or untreated sample. As to the method: (§1) Adhesion, cell area andfibronectin analysis: All of the adhesion and fibronectin fibrils analyses shown in this paper were performed using the trainable Weka segmentation plugin (41) of ImageJ (NIH) software.
Representative images (FIGS. 9A-E) of HDF cell contour following exposure to the different peptides (9B—SEQ ID NO: 21, 9C—SEQ ID NO: 22; 9D—SEQ ID NO: 19; 9E—SEQ ID NO: 20), seeded on glass without external FN coating and fixed after 1 week (A-E, scale=100 μm) illustrate that inhibitor peptides reduce cell size.

Assay [1] concerns the target T1, LOXL3 (Homo sapiens, UniProt P58215).
T1 sequence (P58215 26-753): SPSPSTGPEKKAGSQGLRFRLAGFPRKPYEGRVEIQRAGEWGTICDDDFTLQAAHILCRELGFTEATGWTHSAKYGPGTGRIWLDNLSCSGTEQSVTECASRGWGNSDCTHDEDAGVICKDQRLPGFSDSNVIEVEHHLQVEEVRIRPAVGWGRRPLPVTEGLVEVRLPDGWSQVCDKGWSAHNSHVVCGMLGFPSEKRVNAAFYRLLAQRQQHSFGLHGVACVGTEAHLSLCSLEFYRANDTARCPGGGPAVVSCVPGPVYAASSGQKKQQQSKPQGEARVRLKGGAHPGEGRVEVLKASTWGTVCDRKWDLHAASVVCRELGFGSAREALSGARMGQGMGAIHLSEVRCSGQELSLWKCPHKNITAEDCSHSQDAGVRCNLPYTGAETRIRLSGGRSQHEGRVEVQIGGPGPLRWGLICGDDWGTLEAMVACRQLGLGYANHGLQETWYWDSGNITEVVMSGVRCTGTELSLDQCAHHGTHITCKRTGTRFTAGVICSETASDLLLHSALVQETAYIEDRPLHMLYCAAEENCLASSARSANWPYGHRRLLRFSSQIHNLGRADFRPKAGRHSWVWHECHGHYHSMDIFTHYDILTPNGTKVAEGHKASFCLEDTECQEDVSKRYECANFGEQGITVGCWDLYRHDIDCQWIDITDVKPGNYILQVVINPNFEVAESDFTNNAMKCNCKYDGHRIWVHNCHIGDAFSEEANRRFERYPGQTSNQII
The assay is described as follows: Oxidation assay of peptides by LOXL3. The format is biochemical. The settings on record: for oxidation of the peptide by LOXL3: oxidation assay.

The subject of assay [2] is human dermal fibroblast (HDF) cells. The experiment in a line: Fibronectin fibrillogenesis (FN immunostaining) under HDF cells exposed to peptides. The class given is cell-based. The settings on record: HDF on glass without external FN coating, fixed after 1 week; compared with control peptides (FN1-3, FN1-9) or untreated sample. The method, then: as §1
Immunofluorescence: Cells were fixed with 4% paraformaldehyde solution (36% stock, Sigma-Aldrich, 50-00-0, diluted with PBS) and permeabilized with 0.1% Triton X-100 in PBS (PBT 0.1%). Primary antibodies were incubated with the fixed cells over night at 4° C. After, secondary antibodies and phalloidin were incubated for 1 hour at room temperature. For dSTORM imaging, a second 10 minutes fixation was performed at the end of the immunostaining protocol.
Representative images (FIGS. 8A-E) of fibronectin immunostaining (color-coded for intensity) underneath human dermal fibroblast (HDF) cells exposed to the different peptides (8B—SEQ ID NO: 21, 8C—SEQ ID NO: 22; 8D—SEQ ID NO: 19; 8E—SEQ ID NO: 20), seeded on glass without external FN coating and fixed after 1 week (A-E, scale=20 μm) illustrate that inhibitor peptides block fibronectin fibrillogenesis.

In the next assay the test system is lung fibroblasts. The assay is described as follows: Lung fibroblast proliferation (culture confluency) with peptides. The format is cell-based. The settings on record: following 72 hours in culture. The source says:
Note the lack of effect in the first day of culturing (G).

Assay [3] deals with T1, LOXL3. The assay is described as follows: Spreading and adhesion of Pax-GFP cells on LOXL3-treated FN with or without βAPN. The class given is cell-based. Set-up: purchased R&D systems 6069-AO. As to the method:
Spreading and soft gel experiments: Ibidi 8-wellplates (Ibidi, 190814/1) were coated with human plasma FN (hFN, Sigma-Aldrich, FC010-10MG, 10 μg/ml) for 1 hour at 37° C. Afterwards, the samples were treated with human recombinant LOXL3 (RhLOXL3, R&D systems, 6069-AO) or LOXL2 (RhLOXL2, R&D systems, 2639-AO) for 5 hours (or sodium borate buffer 50 mM as control), with or without 200 mM βAPN (Sigma, A3134-25G) and then washed. Then, cells were seeded on the FN matrix and fixed at varying time points after spreading, followed by immunostaining. For soft gel experiments, Ibidi 8-well plates were covered with silicone gels (DOWSIL, CY 52-276 A&B), prepared at different rigidities that were previously calibrated and described (42) previous to FN coating. Images were acquired using an LSM800 confocal microscope (Zeiss) with Airyscan function and 20× or 63× objectives. […]
Nascent adhesion formation, even on very stiff matrices, requires at least four RGD (Arg-Gly-Asp) ligands that are localized within ˜60 nm from each other (35, 36). […] Towards that end, following enzymatic treatment, FN was coated on glass coverslips and Pax-GFP cells were added and shortly after (15 or 30 minutes) fixed and analyzed.

“ETCFDKYTGNTYRVGDTYERPKDSMIWDCTCIGAGRGRISCTIA (FN1-2 (Inhibitor peptide) long version of FN1-2)”: the cell area result in the assay with HDF cells is reported as “significant reduction”. The “oxidation of the peptide by LOXL3” value with LOXL3 [1] is reported as “undergo oxidation by LOXL3”. In addition, the total fibronectin fibrils entry in assay [2] is “reduction in fibrils”. In the assay with lung fibroblasts, the “culture confluency (cell proliferation)” value is on record as “inhibit cell proliferation”.

Regarding `N#CCCN` [βAPN, beta-aminopropionitrile], the “cell spreading on LOXL3-treated FN” value at LOXL3 [3] (βAPN added following the FN treatment, compared to treated FN without the inhibitor) is recorded as “no difference was observed in cell spreading”. In addition, the “increases in adhesion sizes and cell areas on LOXL3-treated FN” value at LOXL3 [3] (βAPN added to the FN-LOXL3 mix throughout the reaction, glass, 15 minutes) is recorded as “blocked”. For the same molecule, at LOXL3 [1] (addition of βAPN to the oxidation assay), the “effect on LOXL3 oxidation of inhibitor peptides” value is recorded as “oxidation is inhibited”.

For the molecule “DQCQDSETGTFYQIGDSWEKYVHGVRYQCYCYGRGIGEWHCQPL (FN1-9 (control peptide))”, the “oxidation of the peptide by LOXL3” value with LOXL3 [1] was “not the control peptides (FN1-3 and FN1-9) undergo oxidation by LOXL3”. Besides, in the assay on lung fibroblasts, the “culture confluency (cell proliferation)” value was “not with the control peptide (FN1-9) inhibit cell proliferation”.
